Results as given in US20220251124A1, “3,5-BIS(PHENYL)-1H-HETEROARYL DERIVATIVES AS MEDICAMENTS” (INSTITUTE OF BIOTECHNOLOGY CAS, V.V.I., priority 2019, published 2022).

Columns and labels:
MCF7 cells [1] = assay: oxygen consumption rate (OCR), Seahorse XFe96; type: cell-based; conditions: for Oxygen consumption rate, Basal / Oxygen consumption rate, Maximal / Oxygen consumption rate, Proton-leak: MCF7
Procedure: For Seahorse analysis, 20.000 cells were seeded in 96 well plates and added immediately before measurement (addition, Table 6) or incubated with compound 1 for 1 hour (preincubation, Table 7). Afterwards, oxygen consumption rate (OCR) was measured in three cycles of 3 minutes preceded by 3 minutes of mixing, using a Seahorse XFe96 analyzer (Agilent). Results express the mean values of the three cycles.

MCF7 [2] = assay: annexin V/PI staining, cell death induction, 48 hrs; type: cell-based
Procedure: (§1) This effect seems to be based mainly on the cytostatic effect of compound 1. To define the ability to kill cells, cell death-inducing potency (cytotoxic efficacy) of DFX and compound 1 have been tested via annexin V/PI staining commonly used as a measure of apoptotic/necrotic cell death. Briefly, cells were seeded in 12-well plate at 100,000 per well, incubated with the selected compounds for 48 hours, then floating cells were spun, adherent cells trypsinized and spun as well followed by the staining with AnnexinV-FITC and PI probes. Cells were then washed with PBS and measured via Fluorescence Activated Sorter.
Since compound 1 is an iron chelator, we have evaluated the effect of pre-loading compound 1 with iron at a 2:1 ratio and then applying it to the cells, followed by measurement of cell death using the Annexin V/PI staining as in example 4.

MCF7 cells [3] = assay: real time monitoring of cell confluence via Juli FL; type: cell-based; conditions: 30 nM
Procedure: We also tested the ability of compound 1 to suppress proliferation of cancer cells by an alternative approach via the real time monitoring with a cellular analyser Juli F L. In brief, MCF7 cells were seeded in a 6-well plate the day before to reach approximately 5% confluence on the following day. Next day, the camera of the instrument was focused on a particular field with approximately 5% confluence and cells were continuously monitored, recording the confluence and visual appearance every 30 minutes for 48 hrs. Values were then expressed either as simple confluence at the end of the experiment or as slope of the line representing the confluence during a given period of time (Table 5).

non malignant cells MRC5 = assay: annexin V/PI staining, cell death induction, 48 hrs; type: cell-based
Procedure: as §1

OVCAR = assay: as above; type: cell-based
Procedure: as §1

non-malignant HFP1 cells = assay: as above; type: cell-based; conditions: for dead cells (AnnexinV/PI): 48 hrs, HFP1
Procedure: as §1

BxPC3 = assay: as above; type: cell-based
Procedure: as §1

[4] = test system: MCF7 mammospheres (cancer stem-like cells); assay: formation and growth of mammospheres, Cell Titer Glo 3D; type: cell-based; conditions: 1 μM, 140 hrs
Procedure: To test the effect of compound 1 on the viability and proliferation of other resistant cancer cell types, we utilized a model of cancer stem-like cells that can be cultivated in vitro, so-called “mammospheres”. […] In this assay MCF7 spheres were dissociated to single cells/small spheres, seeded 10,000 cells per well on a special cell culture plastic that is non adherent in the Mammocult medium (Stem cell technologies) and compound 1 and compound 2 at 1 μM were added. This represents the non-cytotoxic concentration. Cells were left to grow and generate spheres for 140 hrs. The amount of cells was then measured by the Cell TiterGlo 3D reagent (Promega) that determines cell counts of 3D cultured cells as a function of their ATP content that is determined by a chemiluminescent assay.

[5] = test system: triple negative breast cancer cells (MDA-MB-231) xenograft; assay: tumor growth in xenograft model; type: in vivo, NOD/SCID gamma mice; conditions: for relative tumor size compared to day 0: 2/week
Procedure: The effect of compound 1 on tumor growth in vivo was assessed in a xenograft model of triple negative breast cancer cells (MDA-MB-231) injected into NOD/SCID gamma mice. 1×10^6 cells were injected subcutaneously into each mouse. When the tumors were approximately 10 mm^3 in volume, the animals were randomly divided in two groups and injected intra-peritoneally with either compound 1 (2 mg/kg in corn oil) or vehicle (2.5% DMSO in corn oil), twice per week for 21 days. Tumor size was determined by ultrasound using a Vevo 3100 Preclinical Imaging System (VisualSonics).

cancer cell lines = assay: crystal violet assay, cancer cell lines overall; type: cell-based; conditions: as seen in previous tables
Procedure: Compound 1 and a comparative compound deferasirox (DFX) were tested in their efficacy to kill/suppress proliferation of malignant breast cancer MCF7 cells representing estrogen-dependent type of breast cancer. Briefly, 10.000 cells per well were seeded in a 96-well plate on one day and the next day the tested compounds were added and incubated with the cells for 48 hrs. The cells were then fixed with 4% paraformaldehyde, stained with 0.05% crystal violet, washed with PBS, and solubilized in 1% SDS. The absorbance of the plate at 595 nm was then measured, quantifying the number of viable cells.

MCF7 [6] = assay: cellular ROS, DCF-DA probe, flow cytometry; type: cell-based; conditions: 5 μM
Procedure: (§2) The effect of compound 1 on generation of cellular reactive oxygen species (ROS) was evaluated in MCF7 and MDA-MB-231 cells using a cell permeable ROS probe 2′,7′-dichlorodihydrofluorescein diacetate (DCF-DA; Sigma-Aldrich) that measures several reactive species and becomes fluorescent upon oxidation. Cells treated with compound 1 or compound 2 (5 μM) for the described time interval were stained with the probe and then analyzed via Flow cytometry.

MDA-MB-231 = assay: cellular ROS, DCF-DA probe, flow cytometry; type: cell-based; conditions: 5 μM
Procedure: as §2

For `O=C(NCCCCCCCCCC[P+](c1ccccc1)(c1ccccc1)c1ccccc1)c1ccc(-n2nc(-c3ccccc3O)nc2-c2ccccc2O)cc1` [Compound 1, (10-(4-(3,5-bis(2-hydroxyphenyl)-1H-1,2,4-triazol-1-yl)benzamido)decyl) triphenylphosphonium Chloride], the “Oxygen consumption rate, Basal” value (MCF7 cells [1]; 5 μM, 1 h preincubation) was 39.9 (5.8) pmol*min^−1 10.000 cells^−1, the “Oxygen consumption rate, Maximal” value (MCF7 cells [1]; 5 μM, 1 h preincubation) was 20.7 (4.5) pmol*min^−1 10.000 cells^−1 and the “Oxygen consumption rate, Proton-leak” value (MCF7 cells [1]; 5 μM, 1 h preincubation) was 33.1 (4.7) pmol*min^−1 10.000 cells^−1. For the same compound, the “Oxygen consumption rate, Basal” value (MCF7 cells [1]; 5 μM, immediate addition) was 52.4 (9.2) pmol*min^−1 10.000 cells^−1, the “Oxygen consumption rate, Maximal” value (MCF7 cells [1]; 5 μM, immediate addition) was 29.7 (5.8) pmol*min^−1 10.000 cells^−1 and the “Oxygen consumption rate, Proton-leak” value (MCF7 cells [1]; 5 μM, immediate addition) was 43.5 (7.6) pmol*min^−1 10.000 cells^−1. For the same compound, the “Oxygen consumption rate, Basal” value (MCF7 cells [1]; 10 μM, 1 h preincubation) was 30.9 (3.1) pmol*min^−1 10.000 cells^−1, the “Oxygen consumption rate, Maximal” value (MCF7 cells [1]; 10 μM, 1 h preincubation) was 17.4 (3.8) pmol*min^−1 10.000 cells^−1 and the “Oxygen consumption rate, Proton-leak” value (MCF7 cells [1]; 10 μM, 1 h preincubation) was 25.9 (3.1) pmol*min^−1 10.000 cells^−1. For the same compound, the “Oxygen consumption rate, Basal” value (MCF7 cells [1]; 10 μM, immediate addition) was 49.6 (9.6) pmol*min^−1 10.000 cells^−1, the “Oxygen consumption rate, Maximal” value (MCF7 cells [1]; 10 μM, immediate addition) was 26.3 (5.4) pmol*min^−1 10.000 cells^−1 and the “Oxygen consumption rate, Proton-leak” value (MCF7 cells [1]; 10 μM, immediate addition) was 37.3 (6.1) pmol*min^−1 10.000 cells^−1. For the same compound, the “effect on cellular respiration” value (MCF7 cells [1]; OCR, Seahorse) was “marked inhibition of cellular respiration”, the “dead cells (AnnexinV/PI)” value (MCF7 [2]; 5 μM, +Fe^+3 (pre-loaded with iron at a 2:1 ratio)) was 24.3 (1.1) % and the “dead cells (AnnexinV/PI)” value (MCF7 [2]; 5 μM, alone) was 38.5 (8.8) %. The “dead cells (AnnexinV/PI)” value (MCF7 [2]; 10 μM, +Fe^+3 (pre-loaded with iron at a 2:1 ratio)) was 25.7 (2.5) %, the “dead cells (AnnexinV/PI)” value (MCF7 [2]; 10 μM, alone) was 46.6 (7.8) % and the “effect on cellular proliferation” value (MCF7 cells [3]; MCF7) was “significant inhibition of cellular proliferation”. The Final % confluence (MCF7 cells [3]; MCF7, 48 hrs) was 15.01 (3.4) %, the “Slope 0-22 h (confluence versus time)” value (MCF7 cells [3]; MCF7, Juli FL) was 0.258 (0.005) and the “Slope 22-48 h (confluence versus time)” value (MCF7 cells [3]; MCF7, Juli FL) was 0.404 (0.005). For the same compound, the “dead cells (AnnexinV/PI)” value (non malignant cells MRC5; 1 μM) was 14.5 (1.7) %, the “dead cells (AnnexinV/PI)” value (non malignant cells MRC5; 2 μM) was 19.6 (1.9) % and the “dead cells (AnnexinV/PI)” value (non malignant cells MRC5; 5 μM) was 15.0 (2.0) %. For the same compound, the “dead cells (AnnexinV/PI)” value (OVCAR; 1 μM) was 31.6 (10.3) %, the “dead cells (AnnexinV/PI)” value (OVCAR; 2 μM) was 39.7 (9.8) % and the “dead cells (AnnexinV/PI)” value (OVCAR; 5 μM) was 52.2 (17.5) %. The “dead cells (AnnexinV/PI)” value (non-malignant HFP1 cells; 1 μM) was 12.3 (0.9) %, the “dead cells (AnnexinV/PI)” value (non-malignant HFP1 cells; 2 μM) was 13.6 (1.4) % and the “dead cells (AnnexinV/PI)” value (non-malignant HFP1 cells; 5 μM) was 23.3 (1.1) %. For the same compound, the “concentrations at which toxic effect could be detected” value (non-malignant HFP1 cells; non-malignant HFP1 cells) was “higher than 5 μM”, the “dead cells (AnnexinV/PI)” value (BxPC3; 5 μM) was 37.8 (16.1) % and the “chemiluminescence ATP values normalized to control sample set as 100” value [4] was 6.61 (1.91). For the same compound, the “effect on tumor growth” value ([5]; 2 mg/kg intra-peritoneally, twice per week for 21 days) was “significantly slows down the tumor growth”, the “relative tumor size compared to day 0” value ([5]; day 4, 2 mg/kg intra-peritoneally) was 1.18 (0.3) and the “relative tumor size compared to day 0” value ([5]; day 7, 2 mg/kg intra-peritoneally) was 2.04 (0.3). The “relative tumor size compared to day 0” value ([5]; day 10, 2 mg/kg intra-peritoneally) was 3.00 (0.4), the “relative tumor size compared to day 0” value ([5]; day 14, 2 mg/kg intra-peritoneally) was 4.90 (0.8) and the “relative tumor size compared to day 0” value ([5]; day 17, 2 mg/kg intra-peritoneally) was 4.44 (0.3). For the same compound, the “relative tumor size compared to day 0” value ([5]; day 21, 2 mg/kg intra-peritoneally) was 5.12 (0.6), the “efficacy against cancer cell lines” value (cancer cell lines) was 10 to 100 nM and the DCF-DA mean fluorescence (MCF7 [6]; 5 min, MCF7 (0 min = 100)) was 161.3 (29.8). The DCF-DA mean fluorescence (MCF7 [6]; 10 min, MCF7) was 172.0 (18.9), the DCF-DA mean fluorescence (MCF7 [6]; 15 min, MCF7) was 283.8 (36.6) and the DCF-DA mean fluorescence (MCF7 [6]; 30 min, MCF7) was 857.2 (299.0). The DCF-DA mean fluorescence (MCF7 [6]; 60 min, MCF7) was 1435.0 (452.9), the DCF-DA mean fluorescence (MDA-MB-231; 5 min, MDA-MB-231 (0 min = 100)) was 129.9 (17.4) and the DCF-DA mean fluorescence (MDA-MB-231; 10 min, MDA-MB-231) was 207.8 (94.2). The DCF-DA mean fluorescence (MDA-MB-231; 15 min, MDA-MB-231) was 258.3 (71.2), the DCF-DA mean fluorescence (MDA-MB-231; 30 min, MDA-MB-231) was 437.5 (105.9) and the DCF-DA mean fluorescence (MDA-MB-231; 60 min, MDA-MB-231) was 529.5 (176.1).
With `O=C(O)c1ccc(-n2nc(-c3ccccc3O)nc2-c2ccccc2O)cc1` [DFX, deferasirox, reference compound] the “dead cells (AnnexinV/PI)” value (MCF7 [2]; 500 μM) was 85.2 (3.3) %, the “dead cells (AnnexinV/PI)” value (non malignant cells MRC5; 500 μM) was 43.7 (7.7) % and the “dead cells (AnnexinV/PI)” value (OVCAR; 500 μM) was 59.7 (4.6) %. The “dead cells (AnnexinV/PI)” value (non-malignant HFP1 cells; 500 μM) was 35.6 (1.5) % and the “dead cells (AnnexinV/PI)” value (BxPC3; 500 μM) was 45.8 (21.3) %.
